Measurements reported in patent US20250098671A1, “CHITOSAN ENCAPSULATION OF OXYMATRINE AND TEA SAPONIN FOR USE IN PESTICIDAL ACTIVITY” (priority 2023, published 2025).

How the values were obtained:
[1] = test system: root-knot nematodes (Meloidogyne spp.); assay: Nematocidal activity on hatched root-knot nematodes in Petri dish; details: 15 nematodes; for Nematocidal efficiency (%): up to 3 days
Description: The tomato roots infected with root-knot nematodes were washed with running water and were then cut to a size of about 1 cm, after which 50 g of the cut roots were placed in a 500 ml round-bottom flask containing 200 ml of 0.5% sodium hypochloride (NaOCl), stopped with a rubber stopper, and shaken vigorously for 3 min to sterilize the roots and at the same time burst the egg bag. Thereafter, the solution was passed through a sieve in which 200 mesh was superimposed on 500 mesh, and washed with distilled water, so the eggs of the root-knot nematodes from which the NaOCl solution was removed were recovered.
Next, the eggs of the root-knot nematodes thus recovered were surface-sterilized with 0.5% NaOCl for 10 min, washed thoroughly with sterile distilled water, placed in a phosphate buffer (1%) containing sterilized normal saline, and hatched in an incubator at 25° C.
Thereafter, each mixed solution was diluted to 2000 ppm, 2 to 3 ml thereof was poured into a Petri dish, after which 15 hatched root-knot nematodes were placed in the Petri dish, and nematocidal activity was measured and the results thereof are shown in Table 1 below.
The number of root-knot nematodes used for the experiment on the number of killed root-knot nematodes was 15 at each dilution factor.

[2] = all the antioxidant assay systems; cited from earlier work
tomato seedlings = assay: Phytotoxicity of geraniol, drenching treatment of potted tomato seedlings; assay type: in vivo; details: for Phytotoxicity symptom / Extent of phytotoxicity (0-5): Tomato, 1 week after treatment; for Extent of phytotoxicity (0-5): 50 ml drench
Text: Sterilized soil was uniformly mixed, 300 g thereof was then placed in each pot, and tomato seedlings not infected with root-knot nematodes were transplanted thereto.

[3] = test system: root-knot nematodes (Meloidogyne spp.); assay: Nematocidal activity assessed in development of embodiments; assay type: in vivo
Text: Other embodiments may include the use of other monoterpene alcohols in place of geraniol. In some embodiments, a plant extract selected from the group consisting of a oxymatrine, neem extract, an Ostericum koreanum extract, Quillaja saponaria Molina and a clove extract may be added.

[4] = test system: mosquitos and midge (Ae. aegypti, Culex species mosquitoes, Anopheles species mosquitoes); assay: Mosquito and midge adult activity; assay type: in vivo; details: 500 to 8,000 ppm
[5] = cited from earlier work
mildew, and anthracnose = assay: Fungicide activity of Geraniol oil; details: 500 to 4,000 ppm
plant = assay: Plant phytotoxicity noted in development assessments
black Sigatoka [6] = assay: Black Sigatoka activity assessed in development of embodiments; details: in vivo
multiple insects = assay: Insecticidal activity on multiple insects; assay type: in vivo; details: 500 to 6,000 ppm
Black Sigatoka [7] = assay: Field trials against black Sigatoka in bananas; assay type: in vivo, Mycosphaerella fijiensis; details: applied as tank mixes with tea tree oil
Text: Fungicides are combined in mixtures mainly: to widen the spectrum of antifungal activity and to extend its duration; to exploit the synergistic interaction between the compounds, whereby the overall activity can be increased or the amounts used can be reduced without loss of activity; and to delay or reduce the emergence of resistant strains. […] Although in principle, combinations of synthetic antifungal compounds could be used to reduce the chemical load of any particular compound applied to crops, concerns about resistance development at lower doses have militated against their use as advised by the Fungicide Resistance Action Committee (FRAC).

[8] = 2000 ppm dilution, mixed 1:1 with emulsifier PLE9

In the case of `C/C=C(\C)C(=O)O[C@H]1C[C@@H](OC(C)=O)[C@@]2(C(=O)OC)CO[C@H]3[C@@H](O)[C@@](C)([C@]45O[C@@]4(C)[C@H]4C[C@@H]5O[C@@H]5OC=C[C@@]54O)[C@H]4[C@]1(CO[C@]4(O)C(=O)OC)[C@@H]32` [Azadirachtin, azadirachtin], the “number of killed root-knot nematodes, 1 day” value (“number … 1 day” below) [1, 8] is reported as 7, the “number of killed root-knot nematodes, 2 days” value (“number … 2 days” below) [1, 8] is reported as 8 and the “number of killed root-knot nematodes, 3 days” value (“number … 3 days” for short) [1, 8] is reported as 10. The “Nematocidal efficiency (%)” value ([1]; 2000 ppm dilution) was 66.7%.
For `O=c1c(O)c(-c2ccccc2)oc2cc(O)cc(O)c12` [Galangin, galangin], the antioxidant activity [2] is listed as “comparable activity with that of AEP and EEP”.
For `CC(C)=CCC/C(C)=C/CO` [Geraniol, 3,7-dimethyl-2,6-octadien-1-ol], the “phytotoxicity symptoms in tomato seedlings” value (tomato seedlings; 4000 ppm or more) was “all tomato seedlings collapsed and withered”, the Phytotoxicity symptom (tomato seedlings; Geraniol 100 ppm) was “No” and the “Extent of phytotoxicity (0-5)” value (tomato seedlings; Geraniol 100 ppm) was 0. The Phytotoxicity symptom (tomato seedlings; Geraniol 200 ppm) was “No”, the “Extent of phytotoxicity (0-5)” value (tomato seedlings; Geraniol 200 ppm) was 0 and the Phytotoxicity symptom (tomato seedlings; Geraniol 330 ppm) was “No”. The “Extent of phytotoxicity (0-5)” value (tomato seedlings; Geraniol 330 ppm) was 0, the Phytotoxicity symptom (tomato seedlings; Geraniol 500 ppm) was “No” and the “Extent of phytotoxicity (0-5)” value (tomato seedlings; Geraniol 500 ppm) was 0. For the same compound, the Phytotoxicity symptom (tomato seedlings; Geraniol 1,000 ppm) was “No”, the “Extent of phytotoxicity (0-5)” value (tomato seedlings; Geraniol 1,000 ppm) was 0 and the Phytotoxicity symptom (tomato seedlings; Geraniol 2,000 ppm) was “No”. The “Extent of phytotoxicity (0-5)” value (tomato seedlings; Geraniol 2,000 ppm) was 0, the Phytotoxicity symptom (tomato seedlings; Geraniol 3,000 ppm) was “No” and the “Extent of phytotoxicity (0-5)” value (tomato seedlings; Geraniol 3,000 ppm) was 0. The Phytotoxicity symptom (tomato seedlings; Geraniol 4,000 ppm) was “Withered”, the “Extent of phytotoxicity (0-5)” value (tomato seedlings; Geraniol 4,000 ppm) was 5 and the Phytotoxicity symptom (tomato seedlings; Geraniol 5,000 ppm) was “Withered”. For the same compound, the “Extent of phytotoxicity (0-5)” value (tomato seedlings; Geraniol 5,000 ppm) was 5, the Phytotoxicity symptom (tomato seedlings; Geraniol 10,000 ppm) was “Withered” and the “Extent of phytotoxicity (0-5)” value (tomato seedlings; Geraniol 10,000 ppm) was 5. The Phytotoxicity symptom (tomato seedlings; Geraniol 20,000 ppm) was “Withered”, the “Extent of phytotoxicity (0-5)” value (tomato seedlings; Geraniol 20,000 ppm) was 5 and the “phytotoxicity symptoms in tomato seedlings” value (tomato seedlings; concentration range of 100 ppm to 3,000 ppm) was “no particular phytotoxicity symptoms”. The nematocidal control ([3]; 500 to 4,000 ppm) was “superior nematocidal control”, the nematocidal activity ([3]; utilized alone) was “superior nematocidal activity” and the “mosquito and midge control” value [4] was “superior mosquito and midge control”. The “solubility in organic solvents” value ([5]; most common organic solvents) was “soluble in most common organic solvents”, the solubility in water ([5]; water) was “insoluble in water” and the fungicidal control (mildew, and anthracnose) was “superior fungicidal control”. The plant phytotoxicity (plant; 500 to 4,000 ppm) was “without plant phytotoxicity”, the “plant phytotoxicity or water toxicology” value (plant; 500 to 8,000 ppm) was “without plant phytotoxicity or water toxicology” and the plant phytotoxicity (plant; 4,500 ppm or more) was “plant phytotoxicity was shown to occur”. For the same compound, the “control of the black sigatoka fungus” value (black Sigatoka [6]) was “also effective against the fungus”, the “number … 1 day” value [1, 8] was 15ª and the “number … 1 day” value ([1]; Geraniol 2,000 ppm) was 15.
For `O=C1CCC[C@@H]2[C@H]3CCC[N+]4([O-])CCC[C@@H](CN12)[C@@H]34` (stereo partly shown) [Oxymatrine, oxymatrine], the insecticidal control (multiple insects) was “superior insecticidal control”, the plant phytotoxicity (plant; 500 to 6,000 ppm) was “without plant phytotoxicity” and the “number … 1 day” value [1, 8] was 7. For the same compound, the “number … 2 days” value [1, 8] was 9 and the “number … 3 days” value [1, 8] was 10.
For `CC1COC(Cn2cncn2)(c2ccc(Oc3ccc(Cl)cc3)cc2Cl)O1` (stereo not shown) [difenoconazole], the “control of Black Sigatoka” value (Black Sigatoka [7]) was “effectively controlled Black Sigatoka”.
In the case of `CON=C(C(=O)OC)c1ccccc1CON=C(C)c1cccc(C(F)(F)F)c1` [trifloxystrobin], the “control of Black Sigatoka” value (Black Sigatoka [7]) is reported as “effectively controlled Black Sigatoka”.
For pyrethrin, the “number … 1 day” value [1, 8] was 5, the “number … 2 days” value [1, 8] was 6 and the “number … 3 days” value [1, 8] was 11. For the same compound, the “Nematocidal efficiency (%)” value ([1]; 2000 ppm dilution) was 73.3%.
